Results taken from patent US20120258944A1, “ANTIOXIDANTS FOR USE IN THERAPY” (priority 2009, published 2012).

How the values were obtained:
PLB985 cells = assay: Resazurin based in vitro toxicology assay (TOX8); format: cell-based, human; details: PLB985, 3 hours, up to 120 μM
Protocol: The viability of cells treated with the compounds was also analyzed using a Resazurin based in vitro Toxicology Assay Kit (SigmaAldrich TOX8). Resazurin systems measure the metabolic activity of living cell. Resazurin in its oxidized form (blue) is reduced (red) by living cells and the amount of dye conversion is measured fluorometrically or spectrophotometrically indicating the degree of cytotoxicity.
1) 75 micro-l of PLB985 cells (1 million cells/ml) is mixed with 25 micro-l of Compounds 1, 2, 3 and D (480, 120, 15 and 0.48 micro-M) in a 96 well plate in duplicates. 2) 10 micro-L of Resazurin solution is added to each well and the plate is incubated at 37° C. for 3 hours. 3) Spectrophotometrical analysis is performed in plate reader at 600 and 690 nm.
FIG. 18: Cell viability of compounds in human PLB-985 cell line. Concentrations of compounds 120; 60; 30; 3.75; 0.12 and […] final concentrations. Measurement that indicates cell cytotoxicity (In vitro toxicology assay, TOX-8). The bars show increased level of cytotoxicity (analysis of absorbance of 600 nm substracted with absorbance 690 nm).

[1] = tested on: human neutrophils and PBMCs, rat neutrophils and PBMCs, human PLB-985 cell line; assay: Extracellular ROS, isoluminol luminescence, PMA or fMLF stimulated cells; format: cell-based; details: PMA or fMLF 30 ng/ml; compounds 120 to 0 microM; FIG. 1-4, 9-12, 14-17
Protocol: (§1) Validation was performed by stimulating cells with PMA and fMLF. When treated with the antioxidants, altered level of ROS production from the cells was measured using luminometry. Both intracellular and extracellular effect on ROS on the cells was analyzed using isoluminol (extracellular) and luminol (intracellular when co-administered with SOD and catalase) (Dahlgren et al. “Respiratory burst in human neutrophils”, Journal of Immunological Methods 232 1999; 3-14).
The isoluminol reagent buffer was made of HBSS buffer (with Ca^2+), Isoluminol and HRP.
(§2) 1) Add 25 microL of antioxidants to assay plate to get proper concentrations in a total reaction volume of 100 micro-L. 2) Add 25 microL of PMA (120 ng/ml) and fMLF (120 ng/ml) to assay plate to get concentration of 30 ng/ml in a total reaction volume of 100 microL. 3) Add 50 microL of cell suspension (2 million cells/ml) to each well. Immediately after addition of cell suspension initiate luminescence measurement; the reaction starts at once when the cells are added to the assay plate. Measurement points are taken at 1-minute intervals for 25 minutes. Data is presented as AUC (Area Under Curve) by a summary of all collected measurements for each well.
FIG. 1: Extracellular ROS analyzed by Isoluminol induced luminescence in human Neutrophils. ROS induced with PMA (30 ng/ml) with 200, 100 or 0 microM NAC. Concentrations of compounds 120, 60, 30 and 0 microM final concentrations.
FIG. 9: Extracellular ROS analyzed by Isoluminol induced luminescence in rat Neutrophils. ROS induced with PMA (30 ng/ml) with 200, 100 or 0 microM NAC. Concentrations of compounds 120, 60, 30 and 0 microM final concentrations.
FIG. 11: Extracellular ROS analyzed by Isoluminol induced luminescence in human PLB-985 cell line. ROS induced with PMA (30 ng/ml) with 200, 100 or 0 microM NAC. Concentrations of compounds 120, 60, 30 and 0 microM final concentrations.

[2] = tested on: human umbilical vein endothelial cells (HUVEC); assay: Visual evaluation of HUVECs under the microscope (dislodging from the surface); details: human, 24 h
Protocol: Cells were harvested and resuspended in supplemented medium 200 without phenol red. 50 000 cells were added in duplicates to 96-well plates. The compounds were tested on HUVECs according to the following concentrations.
The compounds were diluted in Medium 200 from the 0.1M stock solution. The toxic effects of the compounds were tested after 24 hrs, 48 hrs and 72 hrs.
By visually looking at the cells under the microscope and estimating the dislodging from the surface, the state of the cells was evaluated.

[3] = tested on: MG-63, HEK-293, SHSY-5y, MRC-5 and CaCo-2-cells; assay: Alamar Blue cell viability/proliferation assay; format: cell-based, human
From the text: Alamar Blue is a non-toxic metabolic indicator for viable cells. Following uptake, the dye becomes reduced and causes a change in the colour of the cell. The colour change correlates reasonably well with the number of living cells in the sample.
Cells w/o antioxidant were used as controls.
Alamar Blue is a non-toxic metabolic indicator for viable cells. Upon uptake into the cell the dye becomes reduced and changes colour. The colour change correlates approximately with the number of living cells in the sample.

[4] = two-phase model, N-acetylcysteine in the aqueous phase; cited from earlier work
[5] = tested on: human Neutrophils and human PBMCs; assay: Intracellular ROS, luminol luminescence with SOD and catalase, PMA or fMLF stimulated cells; format: cell-based; details: PMA or fMLF 30 ng/ml; compounds 120, 60, 30 microM; FIG. 5-8
Protocol: as §1
The luminol reagent buffer is made of HBSS buffer (with Ca^2+), luminol and SOD/Catalase.
as §2
FIG. 5: Intracellular ROS analyzed by Luminol (intracellular ROS) induced luminescence in human Neutrophils. ROS induced with PMA (30 ng/ml) with 200, 100 or 0 microM NAC. Concentrations of compounds 120, 60, 30 and 0 microM final concentrations.
FIG. 6: Intracellular ROS analyzed by Luminol (intracellular ROS) induced luminescence in human Neutrophils. ROS induced with fMLF (30 ng/ml) with 200, 100 or 0 microM NAC. Concentrations of compounds 120, 60, 30 and 0 microM final concentrations.
FIG. 7: Intracellular ROS analyzed by Luminol (intracellular ROS) induced luminescence in human PBMCs. ROS induced with PMA (30 ng/ml) with 200, 100 or 0 microM NAC. Concentrations of compounds 120, 60, 30 and 0 microM final concentrations.
FIG. 8: Intracellular ROS analyzed by Luminol (intracellular ROS) induced luminescence in human PBMCs. […]

CC1Cc2cc(O)ccc2[Se]1 (stereo not shown) [Compound 1]
cytotoxicity (PLB985 cells): no signs of cytotoxicity | antioxidative effect on extracellular ROS [1]: antioxidative effect on extra cellular ROS | concentration at which cells were affected (visual) [2]: 500 µM | cell growth (Alamar Blue) [3]: normal cell growth patterns | concentration until which no sign of cell death or decreased proliferation ([3]; human): 235 micro-M | Inhibited Rate of Linoleic Acid Peroxidation (Rinh) [4]: 69 µM/h | antioxidative effect on intracellular ROS [5]: strong antioxidative effect
